Data published in ChEMBL document CHEMBL3638639, “Chemical compounds” (2015).

target: T1, Solute carrier family 22 member 12 (Homo sapiens, UniProt Q96S37); test: [14C]-Uric Uric acid working stock was made by addition of radiolabeled compound to a final concentration of 120 nM in chloride-free buffer. In all wells, the final assay concentration of solvent (DMSO) was 0.25%; the final assay concentration of [14C]-uric acid was 30 nM in chloride-free buffer and the final compound of formula (I) concentrations ranged from 0 to 10 uM.
T1 sequence (Q96S37 whole entry): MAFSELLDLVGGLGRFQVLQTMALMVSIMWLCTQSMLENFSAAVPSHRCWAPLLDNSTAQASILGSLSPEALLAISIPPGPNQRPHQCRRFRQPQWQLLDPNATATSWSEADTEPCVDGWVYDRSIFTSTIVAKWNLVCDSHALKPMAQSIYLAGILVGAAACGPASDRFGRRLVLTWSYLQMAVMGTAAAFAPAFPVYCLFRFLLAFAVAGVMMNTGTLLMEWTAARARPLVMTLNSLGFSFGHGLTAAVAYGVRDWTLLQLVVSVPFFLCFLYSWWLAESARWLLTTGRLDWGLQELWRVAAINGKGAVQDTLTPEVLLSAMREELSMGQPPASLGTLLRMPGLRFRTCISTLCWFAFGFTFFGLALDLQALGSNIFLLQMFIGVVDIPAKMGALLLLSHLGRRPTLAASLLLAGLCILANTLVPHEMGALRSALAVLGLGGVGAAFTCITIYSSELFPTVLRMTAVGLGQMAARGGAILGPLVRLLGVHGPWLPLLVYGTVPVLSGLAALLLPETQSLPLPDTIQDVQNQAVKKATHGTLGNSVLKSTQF

Point of comparison: N#Cc1cc(S(=O)(=O)Nc2ccc(F)cn2)ccc1Oc1cnc(N2CCC2)c(Cl)c1, IC50 1 µM. Against it:
- N#Cc1ccc(Oc2ccc(S(=O)(=O)Nc3ccc(F)cn3)cc2C#N)c(F)c1 — 21-fold lower, 0.047 µM
- N#Cc1cc(S(=O)(=O)Nc2ccc(F)cn2)ccc1Oc1ccc(Cl)cc1Cl — 12-fold lower, 0.084 µM
- N#Cc1ccccc1Oc1ccc(S(=O)(=O)Nc2ccc(F)cn2)cc1C#N — 2-fold lower, 0.495 µM
- Cc1ccc(F)c(Oc2ccc(S(=O)(=O)Nc3ccc(F)cn3)cc2C#N)c1 — 8.5-fold lower, 0.117 µM
- Cc1ccc(Cl)c(Oc2ccc(S(=O)(=O)Nc3ccc(F)cn3)cc2C#N)c1 — 5.1-fold lower, 0.196 µM
- CNc1ncc(Oc2ccc(S(=O)(=O)Nc3ccc(F)cn3)cc2C#N)cc1Cl — 3.9-fold lower, 0.258 µM
- CN(C)c1ncc(Oc2ccc(S(=O)(=O)Nc3ccc(F)cn3)cc2C#N)cc1Cl — 2.1-fold lower, 0.472 µM
- N#Cc1cc(S(=O)(=O)Nc2ccc(F)cn2)ccc1Oc1cnc(N)c(Cl)c1 — 11-fold lower, 0.087 µM
